Structures are written as SMILES. In brackets after ≈: the same amount, converted by molar mass. Like-named read-outs stand apart in the source and are kept apart here. A value given as a limit tells only on which side of the number the result lay.

Results on four compounds are retold here after patent US5001058A (Bristol-Myers Company, priority 1989, dated 1991).

The test system of data set [1] is macromolecule (DNA, RNA and protein) synthesis in L1210 murine leukemia cells. The data set can be described thus: Inhibitory effects on macromolecule (DNA, RNA and protein) synthesis (summary). The following applies: in words. It counts as cell-based.
Data set [2] concerns Moser (human colorectal carcinoma) cells. The data set can be described thus: In vitro cytotoxicity, neutral red staining. It counts as cell-based.
Data set [3] concerns Streptococcus faecalis A9612. The data set can be described thus: microbe, parasite or virus in culture. To be noted: Enterococcus faecalis.
The subject of data set [4] is murine and human tumor cells. The data set can be described thus: In vitro cytotoxicity against tumor cells (summary). It counts as cell-based.
The next data set deals with Yeast and fungi. The data set can be described thus: Antimicrobial activity, two-fold serial dilution in agar media (summary). It counts as cell-based. The following applies: in words.
Data set [5] has as its system Staphylococcus aureus A20234. The data set can be described thus: Antimicrobial activity, two-fold serial dilution in agar media. It counts as cell-based. To be noted: Nutrient agar.
Data set [6] relates to Bacteroides fragilis A22035. The data set can be described thus: microbe, parasite or virus in culture.
Data set [7] relates to Staphylococcus aureus Smith. The data set can be described thus: Antimicrobial activity, two-fold serial dilution in agar media. It counts as cell-based. The following applies: Nutrient agar.
Data set [8] relates to HCT-116 (human colon carcinoma) cells. The data set can be described thus: In vitro cytotoxicity, neutral red staining. To be noted: HCT-116, 72 hours, 37° C. It counts as cell-based.
In a further data set the test system is Proteus vulgalis A9436. The data set can be described thus: microbe, parasite or virus in culture.
The test system of data set [9] is Micrococcus luteus PCI 1001. The data set can be described thus: Antimicrobial activity, two-fold serial dilution in agar media. It counts as cell-based. To be noted: PCI1001, Nutrient agar.
The subject of data set [10] is Bacillus subtilis PCI 219. Described as above. Type of data set: cell-based. To be noted: PCI219, Nutrient agar.
Data set [11] deals with Staphylococcus aureus 209P. Described as above. Type of data set: cell-based. The following applies: Nutrient agar.
Another data set can be described thus: Solubility. Type of data set: physicochemical.
Data set [12] concerns Clostridium difficile A21675. The data set can be described thus: microbe, parasite or virus in culture. To be noted: Clostridioides difficile.
The next data set deals with gram-positive bacteria. The data set can be described thus: Antimicrobial activity, two-fold serial dilution in agar media (summary). The following applies: in words. It counts as cell-based.
The test system of a further data set is anaerobic bacteria. The description is as above. Type of data set: cell-based. The following applies: in words.
Data set [13] has as its system Klebsiella pneumoniae D11. The data set can be described thus: microbe, parasite or virus in culture.
The test system of data set [14] is Cryptococcus neoformans D49. The data set can be described thus: microbe, parasite or virus in culture.
Data set [15] concerns Preopionibacterium acnes A21933. The data set can be described thus: Antimicrobial activity, two-fold serial dilution in agar media. Type of data set: cell-based. The following applies: Gifu anaerobic medium agar.
The subject of data set [16] is Protein synthesis in L1210 leukemia cells. The data set can be described thus: Inhibition of protein synthesis in L1210 leukemia cells (labelled precursor incorporation). It counts as cell-based, murine. The following applies: Mus musculus, 3H-leucine, 15 min with test material, then 60 min.
Data set [17] relates to Streptococcus pyogenes A20201. The data set can be described thus: Antimicrobial activity, two-fold serial dilution in agar media. It counts as cell-based. The following applies: Nutrient agar.
Data set [18] concerns RNA synthesis in L1210 leukemia cells. The data set can be described thus: Inhibition of RNA synthesis in L1210 leukemia cells (labelled precursor incorporation). To be noted: Mus musculus, 14C-uridine, 15 min with test material, then 60 min. Type of data set: cell-based, murine.
For another data set, the system named is gram-negative bacteria. The data set can be described thus: Antimicrobial activity, two-fold serial dilution in agar media (summary). The following applies: in words. Type of data set: cell-based.
Another data set has as its system Escherichia coli NIHJ. The data set can be described thus: microbe, parasite or virus in culture.
The subject of data set [19] is B16-F10 (murine melanoma) cells. The data set can be described thus: In vitro cytotoxicity, neutral red staining. It counts as cell-based. The following applies: Mus musculus; B16-F10, 72 hours, 37° C.
Data set [20] relates to Aspergillus fumigatus IAM 2530. The data set can be described thus: microbe, parasite or virus in culture. The following applies: IAM2530.
Data set [21] concerns Candida albicans IAM 4888. The data set can be described thus: microbe, parasite or virus in culture. The following applies: IAM4888.
For data set [22], the system named is Clostridium perfringens A9635. The data set can be described thus: microbe, parasite or virus in culture.
Data set [23] has as its system Staphylococcus epidermidis D153. The data set can be described thus: Antimicrobial activity, two-fold serial dilution in agar media. Type of data set: cell-based. To be noted: Nutrient agar.
Data set [24] has as its system Pseudomonas aeruginosa A9930. The data set can be described thus: microbe, parasite or virus in culture.
The subject of another data set is Proteus mirabilis A9554. The data set can be described thus: microbe, parasite or virus in culture.
The test system of data set [25] is DNA synthesis in L1210 leukemia cells. The data set can be described thus: Inhibition of DNA synthesis in L1210 leukemia cells (labelled precursor incorporation). It counts as cell-based, murine. To be noted: Mus musculus, 3H-thymidine, 15 min with test material, then 60 min.
The test system of data set [26] is Trichophyton mentagrophytes D155. The data set can be described thus: microbe, parasite or virus in culture.
The conditions of data set [27]: in words, literature; cited from earlier work.

In the case of `CO[C@@]12[C@H](COC(N)=O)C3=C(C(=O)C(C)=C(N)C3=O)N1C[C@@H]1N[C@@H]12` [Mitomycin C, reference compound], the “Inhibition of macromolecule synthesis” value in data set [1] is “specific inhibition of DNA synthesis”. In data set [2] (72 h), this compound came in with an IC50 of 1.2 µg/mL (≈ 3.59 µM).

`Cc1cc2c(c3oc(C(O)(CO)C4CO4)cc(=O)c13)C(=O)c1c(O)cccc1C2=O` (stereo not shown) [BU-3839T]: the MIC in [3] was 0.4 µg/mL (≈ 0.98 µM); in data set [5] it was 0.05 µg/mL (≈ 0.122 µM); in data set [6] it was 0.1 µg/mL (≈ 0.245 µM); in data set [7] it was 0.05 µg/mL (≈ 0.122 µM); with Proteus vulgalis A9436 it was 6.3 µg/mL (≈ 15.4 µM); in [9] it was 0.025 µg/mL (≈ 0.0612 µM). The MIC is 0.05 µg/mL (≈ 0.122 µM) in data set [10]; 0.05 µg/mL (≈ 0.122 µM) in [11]; 0.4 µg/mL (≈ 0.98 µM) in [12]; 6.3 µg/mL (≈ 15.4 µM) in data set [13]; more than 50 µg/mL in data set [14]; 0.8 µg/mL (≈ 1.96 µM) in data set [15]. Also, the MIC in data set [17] was 0.1 µg/mL (≈ 0.245 µM); in the data set with Escherichia coli NIHJ, more than 50 µg/mL; in data set [20], more than 50 µg/mL; in data set [21], more than 50 µg/mL; in data set [22] it was 0.4 µg/mL (≈ 0.98 µM); in data set [23] it was 0.1 µg/mL (≈ 0.245 µM). In addition, the MIC (in data set [24]; in the data set on Proteus mirabilis A9554; in data set [26]) was more than 50 µg/mL throughout. Moreover, the “Cytotoxicity superior to mitomycin C in terms of IC50 value” in data set [4] (approximately, ratio to mitomycin C) was 300-600 times. The “Cytotoxicity against tumor cells” value in data set [4] (in words) is “quite potent”. In the data set on Yeast and fungi, the “Susceptibility of yeast and fungi” value is reported as “not susceptible”. Moreover, the “Inhibition of macromolecule synthesis” value in [1] was “inhibited DNA, RNA and protein synthesis non-specifically”. Moreover, the IC50 in data set [8] stood at 0.0026 µg/mL (≈ 0.00637 µM); in [2] (Moser, 72 hours, 37° C., read-out: IC50), 0.0046 µg/mL (≈ 0.0113 µM); in data set [16], 0.039 µg/mL (≈ 0.0955 µM); in data set [18], 0.029 µg/mL (≈ 0.071 µM); in data set [19], 0.0009 µg/mL (≈ 0.0022 µM); in data set [25], 0.013 µg/mL (≈ 0.0318 µM). The Solubility entry in “Solubility” (N,N-dimethylformamide) was “soluble”; in the data set “Solubility” (alkaline water), “slightly soluble”; in the data set “Solubility” (chloroform) it was “slightly soluble”; in the data set “Solubility” (dimethyl sulfoxide) it was “soluble”; in the data set “Solubility” (methylene chloride), “slightly soluble”; in the data set “Solubility” (other organic solvents), “almost insoluble”. In addition, in the data set “Solubility” (water), the Solubility entry is “almost insoluble”. For the same compound, in the data set with gram-positive bacteria, the “Inhibitory activity against gram-positive bacteria” value is recorded as “remarkable inhibitory activity”. Besides, in the data set on anaerobic bacteria, the “Activity against anaerobic bacteria” value is “relatively weak activity”. Besides, the “Body weight change on day 4” value in the data set with P388 leukemia (0.008 mg/kg/day, QD × 3, ip) was “+1.0 g”. Moreover, the “MST (median survival time)” value was determined as 11.0 days in the data set on P388 leukemia (0.008 mg/kg/day, QD × 3, ip); 14.5 days in the data set on P388 leukemia (0.5 mg/kg/day, QD × 3, ip); 7.0 days in the data set with P388 leukemia (1 mg/kg/day, QD × 3, ip). The T/C in the data set with P388 leukemia (0.008 mg/kg/day, QD × 3, ip, T/C ≥ […] significant) came out at 110%. The “maximum T/C value” in the data set with P388 leukemia (P388 leukemia, ip, QD×3) turned out to be 145%. In addition, in the data set with P388 leukemia (in words), the “Chemotherapeutic activity against P388 leukemia” value was “relatively broad and moderate chemotherapeutic activity”. Also, the “Activity against gram-negative bacteria” value in the data set with gram-negative bacteria was “relatively weak activity”.

Regarding `Cc1cc2c(c3oc(C4(C5CO5)CO4)cc(=O)c13)C(=O)c1c(O)cccc1C2=O` (stereo not shown) [SF-2330], the Antibacterial activity entry in [27] is on record as “antibacterial activity”.

For the compound `CCC(C)c1cc(=O)c2c(CC(=O)O)cc3c(c2o1)C(=O)c1c(O)cccc1C3=O` (stereo not shown) [SS-43405D], the Antibacterial activity result in [27] was “antibacterial activity”.
